What was measured:
[1] = molecular target: T1, hOAT3 (Homo sapiens, UniProt Q8TCC7); experiment: Two-point inhibition of hOAT3-mediated ES uptake in transfected HEK293 cells; assay type: in vitro ADME; conditions: ES 1 μM, 1 min
T1 construct: expressed in transfected cells; host or cells: HEK293
T1 sequence (Q8TCC7 1-542): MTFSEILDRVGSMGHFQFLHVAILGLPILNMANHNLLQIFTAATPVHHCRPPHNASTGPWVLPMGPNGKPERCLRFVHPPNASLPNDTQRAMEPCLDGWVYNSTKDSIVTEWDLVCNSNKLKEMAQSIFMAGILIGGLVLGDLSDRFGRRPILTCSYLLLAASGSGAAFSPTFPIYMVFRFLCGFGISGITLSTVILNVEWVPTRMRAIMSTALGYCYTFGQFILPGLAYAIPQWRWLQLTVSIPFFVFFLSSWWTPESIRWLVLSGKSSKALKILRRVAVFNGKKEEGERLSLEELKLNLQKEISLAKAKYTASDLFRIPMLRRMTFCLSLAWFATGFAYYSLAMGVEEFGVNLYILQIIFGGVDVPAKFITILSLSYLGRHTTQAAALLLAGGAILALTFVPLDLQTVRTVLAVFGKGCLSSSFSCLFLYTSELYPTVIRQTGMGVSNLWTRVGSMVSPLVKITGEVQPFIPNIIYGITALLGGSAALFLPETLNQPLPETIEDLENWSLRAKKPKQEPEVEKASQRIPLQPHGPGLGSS
Experimental: (§1) Well-characterized mOct1-, mOct2-, mOat1-, mOat2-, mOat3-, mMate1-, hOAT1-, hOAT3-, hOAT4-, hMRP2-, mMdr1a- and mMdr1b-transfected HEK293 cells and the respective vector-transfected control HEK293 cells were used.[42],[51],[52] All HEK293 cells (transporter-transfected and vector-transfected) were cultured in DMEM (Sigma, high glucose, 10% FBS, 1% penicillin (10,000 Units/mL)/streptomycin (10 mg/mL)) at 37°C under 5% CO2 in humidified atmosphere. The cells were routinely checked for the absence of mycoplasma infection. For the preparation of HEK293 cell monolayers, 24-well plates were pretreated with a poly-D-lysine hydrobromide solution (0.1 mg/mL). […]
For the uptake assay, the growth medium was aspirated, and each well was rinsed three times with 0.5 mL of incubation buffer (HBSS supplemented with 20 mM HEPES, pH 7.4) and incubated for 20 min at 37 °C. […] Cells were solubilized with 0.6 mL of 1N NaOH overnight and transferred into scintillation vials. ^3H and ^14C contents were measured after the addition of 2.5 mL of scintillator in a liquid scintillation counter.
The cellular protein amount was determined in parallel for each cell line (vector- and transporter-transfected) from six wells in a different 24-well reference plate using the Bradford method. […]
The inhibitory effect (I(%)) was calculated according to the formula: [drawing 5] […]

[2] = molecular target: T2, mMdr1b (Mus musculus, UniProt P06795); experiment: Two-point inhibition of mMdr1b-mediated efflux of rhodamin123 in transfected HEK293 cells; assay type: in vitro ADME; conditions: rhodamin123 10 μM, efflux 30 min
T2 construct: expressed in transfected cells; host or cells: HEK293
Experimental: as §1, with “mg/mL). Each well was coated with 0.5 mL of poly-D-lysine solution and incubated for at least 15 min.” for “mg/mL).”
For efflux assays, growth medium was aspirated, and each well was rinsed twice with 0.5 mL of incubation HBSS buffer (supplemented with 20 mM HEPES, pH 7.4) and then preincubated in 200 μL of incubation buffer containing 10 μM rhodamin123 and 10 μM cyclosporine A for 60 min at 37 °C for loading the cells with rhodamin123. […] Samples were diluted with incubation buffer, and fluorescence was measured in a 96-well plate (Sarstedt, flat bottom) at an extinction of 490 nm and emission of 535 nm. […]
The inhibitory effect I (%) and the efflux ratio was calculated in the same way described for the uptake assays.

T2 sequence (P06795 whole entry): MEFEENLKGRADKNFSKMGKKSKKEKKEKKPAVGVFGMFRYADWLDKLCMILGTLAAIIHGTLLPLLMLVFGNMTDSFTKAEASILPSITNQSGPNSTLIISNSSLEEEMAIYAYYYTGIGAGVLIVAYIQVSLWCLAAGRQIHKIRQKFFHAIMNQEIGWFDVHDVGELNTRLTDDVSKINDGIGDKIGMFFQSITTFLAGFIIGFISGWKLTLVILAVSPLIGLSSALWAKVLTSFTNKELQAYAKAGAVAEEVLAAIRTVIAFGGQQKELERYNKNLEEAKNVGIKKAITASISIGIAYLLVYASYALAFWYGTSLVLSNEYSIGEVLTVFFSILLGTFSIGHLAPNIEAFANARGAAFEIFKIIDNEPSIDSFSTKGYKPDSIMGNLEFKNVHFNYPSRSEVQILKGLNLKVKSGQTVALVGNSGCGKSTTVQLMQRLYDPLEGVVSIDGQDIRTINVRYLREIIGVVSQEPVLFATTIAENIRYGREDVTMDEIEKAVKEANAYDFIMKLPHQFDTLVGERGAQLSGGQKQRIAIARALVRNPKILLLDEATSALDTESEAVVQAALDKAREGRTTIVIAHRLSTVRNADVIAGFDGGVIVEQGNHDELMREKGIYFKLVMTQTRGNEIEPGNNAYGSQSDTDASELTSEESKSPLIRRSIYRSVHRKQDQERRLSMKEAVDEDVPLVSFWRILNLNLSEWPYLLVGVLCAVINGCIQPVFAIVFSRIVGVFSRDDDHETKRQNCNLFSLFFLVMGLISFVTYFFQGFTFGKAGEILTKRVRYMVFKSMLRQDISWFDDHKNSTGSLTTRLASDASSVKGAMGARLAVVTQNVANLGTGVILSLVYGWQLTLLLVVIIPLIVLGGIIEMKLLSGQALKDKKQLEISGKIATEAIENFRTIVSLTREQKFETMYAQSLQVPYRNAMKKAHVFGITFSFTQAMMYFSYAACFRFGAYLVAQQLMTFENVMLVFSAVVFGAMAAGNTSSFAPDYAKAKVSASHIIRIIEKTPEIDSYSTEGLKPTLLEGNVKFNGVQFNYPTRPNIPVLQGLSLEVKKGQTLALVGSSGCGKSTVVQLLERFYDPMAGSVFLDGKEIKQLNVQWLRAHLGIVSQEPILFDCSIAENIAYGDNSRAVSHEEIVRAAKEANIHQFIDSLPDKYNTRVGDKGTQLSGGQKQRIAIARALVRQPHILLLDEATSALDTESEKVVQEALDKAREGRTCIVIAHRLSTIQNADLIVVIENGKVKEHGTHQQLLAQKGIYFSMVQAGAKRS

Cc1ccc2c(C)c3c(c(O)c2c1O)C(=O)[C@@]1(O)C(=O)C(C(N)=O)=C(O)[C@@H](N)[C@H]1C3 [CDCHD, amidochelocardin]
inhibition of hOAT3 (in words) ([1]; 1 and 10 μM): only marginally | inhibition at 10 µM ([2]; HEK293, at 10 μM, read-out: inhibitory effect on mMdr1b): ~30%

CC(=O)C1=C(O)[C@@H](N)[C@H]2Cc3c(c(O)c4c(O)c(C)ccc4c3C)C(=O)[C@@]2(O)C1=O [CHD, chelocardin]
inhibition at 10 µM ([1]; HEK293, at 10 μM, read-out: inhibitory effect on hOAT3): ~75% | inhibitory effect on mMdr1b (in words) ([2]; 1 and 10 μM): no effect
